# Results: US11572590B2, “Methods for evaluating tumor cell spheroids using 3D microfluidic cell culture device” (Dana-Farber Cancer Institute, Inc., priority 2017, dated 2023)
# Where two headings read alike, the source gives them in different places.
# Tests used:
# Experiment in all cases: SelectScreen Kinase Profiling, single point inhibition and IC50 for off-target kinases
# Type in all cases: biochemical
# [1] = target: off-target kinases (Homo sapiens, UniProt P09769); settings: FGR, ATP Km app, ZLYTE
# [2] = target: off-target kinases (Homo sapiens, UniProt P19784); settings: CSNK2A2 (CK2 alpha 2), ZLYTE, ATP Km app
# [3] = target: T1, off-target kinases (Homo sapiens, UniProt P52564)
# T1 sequence (P52564 1-334): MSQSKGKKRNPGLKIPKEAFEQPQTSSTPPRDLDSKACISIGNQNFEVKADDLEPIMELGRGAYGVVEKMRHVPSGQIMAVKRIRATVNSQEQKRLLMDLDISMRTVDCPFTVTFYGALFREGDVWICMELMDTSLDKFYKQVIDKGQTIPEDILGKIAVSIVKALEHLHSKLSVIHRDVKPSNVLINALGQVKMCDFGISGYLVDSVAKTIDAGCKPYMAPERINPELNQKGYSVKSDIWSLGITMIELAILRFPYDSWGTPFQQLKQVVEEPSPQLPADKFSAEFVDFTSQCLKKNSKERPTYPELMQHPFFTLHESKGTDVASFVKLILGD
# [4] = target: off-target kinases (Homo sapiens, UniProt Q05655); settings: PRKCD (PKC delta), ZLYTE, ATP Km app
# [5] = target: T2, off-target kinases (Homo sapiens, UniProt Q13188); settings: STK3 (MST2), ZLYTE, ATP Km app
# T2 sequence (Q13188 1-491): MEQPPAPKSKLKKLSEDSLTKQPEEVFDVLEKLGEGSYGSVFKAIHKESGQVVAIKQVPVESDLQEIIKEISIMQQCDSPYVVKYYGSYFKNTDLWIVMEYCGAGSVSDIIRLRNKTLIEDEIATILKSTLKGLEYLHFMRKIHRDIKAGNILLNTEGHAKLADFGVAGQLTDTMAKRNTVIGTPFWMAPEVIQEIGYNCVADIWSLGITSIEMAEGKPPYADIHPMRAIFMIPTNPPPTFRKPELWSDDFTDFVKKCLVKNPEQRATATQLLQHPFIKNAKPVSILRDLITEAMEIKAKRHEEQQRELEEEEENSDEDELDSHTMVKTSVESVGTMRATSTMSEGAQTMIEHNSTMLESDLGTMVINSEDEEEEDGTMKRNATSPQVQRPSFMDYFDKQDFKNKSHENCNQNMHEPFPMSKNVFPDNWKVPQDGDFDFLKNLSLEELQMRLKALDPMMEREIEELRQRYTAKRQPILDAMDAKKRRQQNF
# [6] = target: off-target kinases (Homo sapiens, UniProt Q9NYA1); settings: SPHK1, Adapta, ATP Km app
# [7] = system: off-target kinases
# Chain of off-target kinases (Homo sapiens, UniProt P19784) (P19784 whole entry): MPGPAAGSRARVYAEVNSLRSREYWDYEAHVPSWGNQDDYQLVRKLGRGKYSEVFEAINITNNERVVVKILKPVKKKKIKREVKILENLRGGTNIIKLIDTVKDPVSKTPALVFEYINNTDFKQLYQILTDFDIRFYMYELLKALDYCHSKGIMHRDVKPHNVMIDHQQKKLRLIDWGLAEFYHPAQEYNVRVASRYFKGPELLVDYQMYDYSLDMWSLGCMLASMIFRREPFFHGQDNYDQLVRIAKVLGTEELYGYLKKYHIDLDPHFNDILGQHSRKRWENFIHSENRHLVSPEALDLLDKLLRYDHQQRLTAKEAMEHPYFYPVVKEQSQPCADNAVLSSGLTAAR
# Chain of off-target kinases (Homo sapiens, UniProt Q9NYA1) (Q9NYA1 whole entry): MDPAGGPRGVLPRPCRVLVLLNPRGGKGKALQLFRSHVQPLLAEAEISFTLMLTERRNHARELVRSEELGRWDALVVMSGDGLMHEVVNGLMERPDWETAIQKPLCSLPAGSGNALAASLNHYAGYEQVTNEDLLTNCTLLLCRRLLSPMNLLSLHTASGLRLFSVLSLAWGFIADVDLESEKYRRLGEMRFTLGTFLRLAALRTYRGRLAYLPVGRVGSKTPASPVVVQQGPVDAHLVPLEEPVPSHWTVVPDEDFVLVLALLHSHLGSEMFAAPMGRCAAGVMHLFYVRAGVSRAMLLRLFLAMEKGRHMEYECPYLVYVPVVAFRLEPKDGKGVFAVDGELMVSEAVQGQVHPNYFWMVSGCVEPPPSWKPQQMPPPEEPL
# Chain of off-target kinases (Homo sapiens, UniProt Q05655) (Q05655 whole entry): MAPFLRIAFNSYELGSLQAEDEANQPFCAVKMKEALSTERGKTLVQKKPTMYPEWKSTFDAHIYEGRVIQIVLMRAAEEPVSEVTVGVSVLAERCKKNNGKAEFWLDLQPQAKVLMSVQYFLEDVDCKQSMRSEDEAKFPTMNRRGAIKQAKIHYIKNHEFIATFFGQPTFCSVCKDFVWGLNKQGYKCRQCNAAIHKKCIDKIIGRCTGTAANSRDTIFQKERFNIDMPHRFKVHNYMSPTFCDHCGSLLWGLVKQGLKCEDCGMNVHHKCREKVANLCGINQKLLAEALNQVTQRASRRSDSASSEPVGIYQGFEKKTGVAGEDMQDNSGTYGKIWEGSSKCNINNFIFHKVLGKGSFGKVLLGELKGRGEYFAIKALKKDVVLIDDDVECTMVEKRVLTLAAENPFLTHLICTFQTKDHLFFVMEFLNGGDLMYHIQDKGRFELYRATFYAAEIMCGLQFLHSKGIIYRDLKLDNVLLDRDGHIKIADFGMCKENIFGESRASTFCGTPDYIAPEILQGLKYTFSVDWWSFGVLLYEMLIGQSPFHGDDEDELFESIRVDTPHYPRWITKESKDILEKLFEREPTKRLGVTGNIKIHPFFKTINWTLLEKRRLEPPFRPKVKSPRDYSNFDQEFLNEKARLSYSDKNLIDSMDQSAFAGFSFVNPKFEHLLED
# Chain of off-target kinases (Homo sapiens, UniProt P09769) (P09769 whole entry): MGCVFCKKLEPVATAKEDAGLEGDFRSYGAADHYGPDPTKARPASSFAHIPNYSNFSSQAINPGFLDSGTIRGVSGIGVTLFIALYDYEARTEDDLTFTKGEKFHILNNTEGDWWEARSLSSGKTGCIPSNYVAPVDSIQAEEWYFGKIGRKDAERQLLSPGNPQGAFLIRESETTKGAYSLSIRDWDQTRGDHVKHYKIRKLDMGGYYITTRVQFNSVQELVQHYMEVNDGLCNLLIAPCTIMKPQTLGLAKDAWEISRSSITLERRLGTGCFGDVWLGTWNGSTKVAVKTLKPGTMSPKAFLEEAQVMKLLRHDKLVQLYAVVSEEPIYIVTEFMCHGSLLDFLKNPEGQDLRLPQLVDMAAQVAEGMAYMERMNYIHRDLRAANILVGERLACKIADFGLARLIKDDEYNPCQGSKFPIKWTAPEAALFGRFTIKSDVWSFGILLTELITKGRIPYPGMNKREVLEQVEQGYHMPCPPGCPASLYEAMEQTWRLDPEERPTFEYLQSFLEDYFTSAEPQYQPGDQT
smiles,measurement,setting,value
"N#Cc1cc(-c2ncnc(Nc3ccc(N4CCN(C5COC5)CC4)cc3)n2)ccc1OC1CCOCC1 [Compound 1, 5-(4-((4-(4-(oxetan-3-yl)piperazin-1-yl)phenyl)amino)-1,3,5-triazin-2-yl)-2-((tetrahydro-2H-pyran-4-yl)oxy)benzonitrile]",inhibition,[1]; read-out: % Inhibition 1,53%
same,inhibition,[1]; read-out: % Inhibition 2,53%
same,inhibition,[1]; read-out: % Inhibition Avg,53%
same,inhibition,[2]; read-out: % Inhibition 1,32%
same,inhibition,[2]; read-out: % Inhibition 2,30%
same,inhibition,[2]; read-out: % Inhibition Avg,31%
same,inhibition,"[3]; MAP2K6 (MKK6), LanthaScreen Binding, read-out: % Inhibition 2",4%
same,inhibition,"[3]; MAP2K6 (MKK6), LanthaScreen Binding, read-out: % Inhibition Avg",1%
same,inhibition,"[3]; MAP2K6 (MKK6), ZLYTE, ATP 100, read-out: % Inhibition 1",0%
same,inhibition,"[3]; MAP2K6 (MKK6), ZLYTE, ATP 100, read-out: % Inhibition 2",19%
same,inhibition,"[3]; MAP2K6 (MKK6), ZLYTE, ATP 100, read-out: % Inhibition Avg",9%
same,inhibition,[3]; read-out: % Inhibition 1,-2%
same,inhibition,[4]; read-out: % Inhibition 1,4%
same,inhibition,[4]; read-out: % Inhibition 2,-4%
same,inhibition,[4]; read-out: % Inhibition Avg,0%
same,inhibition,[5]; read-out: % Inhibition 1,5%
same,inhibition,[5]; read-out: % Inhibition 2,6%
same,inhibition,[5]; read-out: % Inhibition Avg,5%
same,inhibition,[6]; read-out: % Inhibition 1,10%
same,inhibition,[6]; read-out: % Inhibition 2,-9%
same,inhibition,[6]; read-out: % Inhibition Avg,0%
same,JAK inhibitory activity,[7],lacks JAK inhibitory activity
